Source: patent publication US9035057B2, “Dihydroethidine analogues and uses thereof” (Washington University, priority 2009, dated 2015)

Columns and labels:
[1] = Plate reader oxidation rate of compound C1, superoxide production with hypoxanthine and xanthine oxidase (XO system); format: biochemical
Protocol: (§1) This example illustrates oxidation rates of Compound C1 under various conditions. In these experiments, fluorescence intensity of Compound C1 was evaluated in a plate reader assay, and the fluorescence intensity over time of the oxidation rate of compound C1 was evaluated. […] Excitation was done at 480 nm and emission filtering was >590 nm. The following reaction conditions were used: [table]

[2] = Plate reader oxidation of compound C1 with peroxide; format: biochemical; settings: H202 1 mM
Protocol: as §1

[3] = Plate reader oxidation of compound C1 with H202 and horseradish peroxidase; format: biochemical; settings: H202 1 mM, HRP 0.2 U/ml
Protocol: as §1

[4] = Comparative oxidation of C1 and DHE in the presence of oxidizers, single wavelength fluorescence platereader study; format: biochemical; settings: elevations with superoxide but not with peroxide (H202), hydroxyl radical (HO—) or peroxynitrate (ONOO—); FIG. 2
Protocol: This example illustrates comparative oxidation of C1 and DHE. In these experiments, fluorescence of C1 or DHE were determined in the presence of oxidizers. […] In this single wavelength fluorescence platereader study, it should be noted that the ratio of fluorescence increase in a study cannot be compared between DHE and compound C1 since their non-oxidized forms have fluorescence and the light spectra overlap to a variable degree with the oxidized forms.

[5] = In vivo oxidation in brains of ketamine-pretreated mice, confocal microscopy; settings: for detection of superoxide produced by ketamine treatment (fluorescence of oxidized form in mouse brain): ketamine pretreatment
Protocol: In these experiments, mice were pretreated for several days with subanesthetic doses of ketamine, which produces a large increase in neuronal superoxide generation (Behrens et al, 2007). The mice were injected with 27 mg/kg of compound C1 and sacrificed 16 hours later. Brains were sliced and imaged by confocal microscopy. The images of the brains sliced 16 hours after administration of compound C1 are depicted in FIG. 4. […] The quantitative measures of fluorescence of the oxidized forms of DHE and compound C1 in mouse brain are depicted in FIG. 5. When compound C1 was administered to transgenic mice overexpressing SOD, the increased fluorescence from the ketamine pretreatment was abolished, consistent with the SOD removal of superoxide (FIG. 5).

[6] = Selective reactivity with superoxide generated by xanthine oxidase/hypoxanthine, absence or presence of SOD; format: biochemical; settings: for oxidation by superoxide / effect of SOD on oxidation by superoxide: xanthine oxidase/hypoxanthine; for oxidation by superoxide: absence of SOD, DHE concentration double that of the WC compounds; for effect of SOD on oxidation by superoxide: presence of SOD; for specificity for superoxide: FIG. 3, change in fluorescent units from baseline; for specificity for superoxide, comparison among compounds: levels of hydroxyl radical very supraphysiological
Protocol: (§2) This example illustrates a comparison of compounds for selective reactivity with superoxide radical. In these experiments, compounds WC-63, WC-77 and WC-81 were exposed to superoxide generated by xanthine oxidase/hypoxanthine in the absence or presence SOD, and were evaluated similarly as compound C1 in Example 10. The concentration of DHE for all experiments was double that of compounds WC-63, WC-77 and WC-81. […] All of the compounds were also exposed to H202 in the presence of horseradish peroxidase (HRP) to generate hydroxyl radical.

[7] = Tissue uptake of the tracers, fluorescence lifetime imaging; format: in vivo, mice; settings: FIG. 8
Source text: This example illustrates tissue uptake of the tracers. In these experiments, tracer lifetimes in mice were studied by fluorescence imaging of DHE and compounds WC-63, WC-77 and WC-81.

[8] = Exposure to H202 alone, fluorescence; format: biochemical
Protocol: as §2

[9] = Exposure to H202 in the presence of horseradish peroxidase (HRP), fluorescence; format: biochemical; settings: H202 with HRP, supraphysiologic levels
Protocol: as §2

[10] = Kinetics of compound WC-81 in brain in vivo, eXplore Optix-MX2 fluorescence scanner; parameters: species or system mouse
Protocol: In these experiments, an anesthetized mouse was placed in an eXplore Optix™-MX2 scanner, and an initial scan was completed for background fluorescence (T=0). A single intraperitoneal injection of 50 mg/kg of compound WC-81 in 50% DMSO, 50% saline was performed, and the animal was rescanned at 10 minutes. It took approximately 5 minutes to complete the scan. The mouse was removed, allowed to recover, then re-anesthetized and rescanned at 1 hour. A similar recovery and rescan was performed at 2 hours. The mouse was pretreated with subanesthetic doses of ketamine to raise superoxide levels. Cortical (left and right) and cerebellar activity are depicted in FIG. 6.

[11] = Fluorescence from oxidation of compound WC-81 in mouse brain images; format: in vivo, mice; settings: FIG. 7
Protocol: This example illustrates fluorescence from oxidation of Compound WC-81. In these experiments, compound WC-81 was administered to mice, and images of mouse brains were then obtained (FIG. 7).

CN1c2cc(N)ccc2-c2ccc(N)cc2C1c1ccccc1 (stereo not drawn) [C1]
effect of superoxide dismutase (SOD) on oxidation ([1]; XO system plus SOD 575 U/ml): completely removed | effect of catalase on oxidation ([1]; XO system plus catalase 60 U/ml): did not effect | rate of conversion by oxidation compared with DHE ([1]; data not shown): slightly faster than DHE | oxidation under superoxide production ([1]; hypoxanthine and xanthine oxidase (XO system)): oxidized rapidly | reactivity and selectivity for superoxide (fluorescence intensity over time) ([1]; plate reader, excitation 480 nm, emission >590 nm, FIG. 1): both reactivity and selectivity for superoxide | oxidation with peroxide [2]: no oxidation | oxidation with H202 with horseradish peroxidase [3]: no oxidation | selective oxidation (fluorescence) in the presence of oxidizers [4]: selective oxidation similar to DHE | pattern of brain fluorescence ([5]; ketamine pretreated mice, 27 mg/kg, sacrificed 16 hours later, FIG. 4): consistent with the presence of intracellular oxidized compound C1 | detection of superoxide produced by ketamine treatment (fluorescence of oxidized form in mouse brain) ([5]; FIG. 5): detected a large increase | increased fluorescence from ketamine pretreatment in transgenic mice overexpressing SOD ([5]; transgenic mice overexpressing SOD, FIG. 5): abolished

CCN1c2cc(N)ccc2-c2ccc(N)cc2C1c1ccccc1 (stereo not drawn) [DHE, 2,7-diamino-10-ethyl-9-phenyl-9,10-dihydrophenanthradine, reference compound]
oxidation by superoxide [6]: oxidized by superoxide | effect of SOD on oxidation by superoxide [6]: fully blocked oxidation | detection of superoxide produced by ketamine treatment (fluorescence of oxidized form in mouse brain) ([5]; FIG. 5): detected a large increase | tissue presence of tracer [7]: present in the brain and organs in the chest

COc1ccc(C2c3cc(N)ccc3-c3ccc(N)cc3N2C)cc1 (stereo not drawn) [WC-63]
specificity for superoxide [6]: high specificity for superoxide | oxidation by superoxide [6]: oxidized by superoxide | effect of SOD on oxidation by superoxide [6]: fully blocked oxidation | oxidation with H202 [8]: generally no evidence of oxidation | oxidation in the presence of hydroxyl radical [9]: generally no evidence of oxidation | tissue presence of tracer [7]: present in the brain and organs in the chest

CN1c2cc(N)ccc2-c2ccc(N)cc2C1c1ccc(OCCF)cc1 (stereo not drawn) [WC-81]
stability of the product, comparison among compounds [6]: most stable and intact product | specificity for superoxide [6]: high specificity for superoxide | specificity for superoxide, comparison among compounds [6]: highly selective for superoxide | oxidation by superoxide [6]: oxidized by superoxide | effect of SOD on oxidation by superoxide [6]: fully blocked oxidation | oxidation with H202 [8]: generally no evidence of oxidation | oxidation in the presence of hydroxyl radical [9]: partial oxidation | brain fluorescence levels at 120 minutes ([10]; 50 mg/kg intraperitoneal, 120 minutes): fall in levels | time by which plateau of brain fluorescence was reached ([10]; 50 mg/kg intraperitoneal, cortical and cerebellar activity): ≤ 60 min | brain penetration ([10]; single intraperitoneal injection 50 mg/kg in 50% DMSO, 50% saline, ketamine pretreated mouse, FIG. 6): penetrated the brain | localization of fluorescence from oxidation in brain [11]: localized to cerebral microvessels and to the extracellular space around certain cortical or hippocampal neurons | tissue presence of tracer [7]: present in the brain and organs in the chest

CN1c2cc(N)ccc2-c2ccc(N)cc2C1c1ccc(OCc2cn(CCF)nn2)cc1 (stereo not drawn) [WC-77]
specificity for superoxide [6]: high specificity for superoxide | specificity for superoxide, comparison among compounds [6]: most specific compound for superoxide | oxidation by superoxide [6]: oxidized by superoxide | effect of SOD on oxidation by superoxide [6]: fully blocked oxidation | oxidation with H202 [8]: generally no evidence of oxidation | oxidation in the presence of hydroxyl radical [9]: generally no evidence of oxidation
